According to patent US20230270870A1, “DOSAGE OF AN ANTIBODY-DRUG CONJUGATE” (DAIICHI SANKYO COMPANY, LIMITED, priority 2019, published 2023):
Where two headings read alike, the source gives them in different places.

Assays:
[1] = Phase 1 clinical study: pharmacokinetics; assay type: in vivo; conditions: human, plasma, intravenous
Description: Preliminary single- and multiple-dose PK were evaluated using noncompartmental analysis in 61 subjects who received DS-1062a (0.27 mg/kg to 10 mg/kg).

topoisomerase I = biological target: T1, topoisomerase I (Homo sapiens, UniProt P11387); conditions: cited from earlier work
T1 sequence (P11387 1-765): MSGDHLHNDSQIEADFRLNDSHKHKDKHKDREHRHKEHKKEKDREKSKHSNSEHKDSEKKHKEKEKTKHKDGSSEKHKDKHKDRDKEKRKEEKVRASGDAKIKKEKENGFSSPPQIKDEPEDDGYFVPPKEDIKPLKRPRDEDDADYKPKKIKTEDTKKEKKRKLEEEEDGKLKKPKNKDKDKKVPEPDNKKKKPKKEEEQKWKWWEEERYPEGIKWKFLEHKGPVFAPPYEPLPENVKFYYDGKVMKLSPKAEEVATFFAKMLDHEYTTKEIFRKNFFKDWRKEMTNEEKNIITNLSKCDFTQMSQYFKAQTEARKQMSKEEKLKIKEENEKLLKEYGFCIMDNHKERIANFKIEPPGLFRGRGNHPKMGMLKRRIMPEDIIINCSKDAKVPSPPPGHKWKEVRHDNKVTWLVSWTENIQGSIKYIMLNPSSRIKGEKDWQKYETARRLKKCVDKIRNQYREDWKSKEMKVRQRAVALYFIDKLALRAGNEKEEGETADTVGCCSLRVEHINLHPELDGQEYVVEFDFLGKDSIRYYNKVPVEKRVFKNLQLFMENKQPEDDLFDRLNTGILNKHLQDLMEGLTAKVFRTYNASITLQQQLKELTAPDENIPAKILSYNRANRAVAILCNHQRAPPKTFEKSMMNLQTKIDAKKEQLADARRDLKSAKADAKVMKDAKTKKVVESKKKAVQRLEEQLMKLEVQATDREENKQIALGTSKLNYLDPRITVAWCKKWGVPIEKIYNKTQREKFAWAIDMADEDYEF

NSCLC [2] = conditions: NSCLC progressed during or after platinum-based doublet chemotherapy, N=290; cited from earlier work
NSCLC [3] = conditions: phase 2, subjects who received standard of care; cited from earlier work

## CC[C@@]1(O)C(=O)OCc2c1cc1n(c2=O)Cc2c-1nc1cc(F)c(C)c3c1c2[C@@H](NC(=O)CO)CC3 [Compound 1, HO—CH2—C(═O)—(NH—DX)]
[1]
  exposure of released drug compared with DS-1062a: lower than that of DS-1062a
Topoisomerase I
  topoisomerase I inhibitory effect: topoisomerase I inhibitory effect

## CC(=O)O[C@@]12CO[C@@H]1C[C@H](O)[C@@]1(C)C(=O)[C@H](O)C3=C(C)[C@@H](OC(=O)[C@H](O)[C@@H](NC(=O)OC(C)(C)C)c4ccccc4)C[C@@](O)([C@@H](OC(=O)c4ccccc4)[C@H]21)C3(C)C [Docetaxel monotherapy, Docetaxel]
NSCLC [2]
  DCR: 54.0% (158/290) (not provided)
  ORR: 12.0% (36/290) (9.0% to 17.0%)

## Sactizumab govitecan
NSCLC [3]
  ORR: 19%
